Reference: patent US7741346B2, “Angiogenesis inhibitor” (Santen Pharmaceutical Co., Ltd., priority 2001, dated 2010)

Structure (SMILES) | melting point [°C]
CC(C)N(CCC12CC3CC(CC(C3)C1)C2)C(=O)NCCCc1ccncc1 [Compound No. 1-68, 1-[2-(1-Adamantyl)ethyl]-1-isopropyl-3-[3-(4-pyridyl)propyl]urea] | 132 to 134
CC(C)(C)OC(=O)CCN(CCC12CC3CC(CC(C3)C1)C2)C(=O)NCCCc1ccncc1 [Compound No. 1-69, 1-[2-(1-Adamantyl)ethyl]-1-[2-(t-butoxycarbonyl)ethyl]-3-[3-(4-pyridyl)propyl]urea] | 124.5 to 127
O=C(NCCCc1ccncc1)N(CCC12CC3CC(CC(C3)C1)C2)C1CCCC1 [Compound No. 1-70, 1-[2-(1-Adamantyl)ethyl]-1-cyclopentyl-3-[3-(4-pyridyl)propyl]urea] | 135.5 to 137.5
CCCCCN(CCC12CC3CC(CC(C3)C1)C2)C(=O)NCc1ccccn1 [Compound No. 1-72, 1-[2-(1-Adamantyl)ethyl]-1-pentyl-3-(2-pyridyl)methylurea] | 87.5 to 92
CCCCCN(CCC12CC3CC(CC(C3)C1)C2)C(=O)NCc1cccnc1 [Compound No. 1-73, 1-[2-(1-Adamantyl)ethyl]-1-pentyl-3-(3-pyridyl)methylurea] | 88.5 to 101.5
CCCCCN(CCC12CC3CC(CC(C3)C1)C2)C(=O)NCc1ccncc1 [Compound No. 1-74, 1-[2-(1-Adamantyl)ethyl]-1-pentyl-3-(4-pyridyl)methylurea] | 96.5 to 108
CCCCCN(CCC12CC3CC(CC(C3)C1)C2)C(=O)NCCc1ccccn1 [Compound No. 1-75, 1-[2-(1-Adamantyl)ethyl]-1-pentyl-3-[2-(2-pyridyl)ethyl]urea] | 80 to 100
CCCCCN(CCC12CC3CC(CC(C3)C1)C2)C(=O)NCCc1cccnc1 [Compound No. 1-76, 1-[2-(1-Adamantyl)ethyl]-1-pentyl-3-[2-(3-pyridyl)ethyl]urea] | 112.5 to 114.5
CCCCCN(CCC12CC3CC(CC(C3)C1)C2)C(=O)NCCc1ccncc1 [Compound No. 1-80, 1-[2-(1-Adamantyl)ethyl]-1-pentyl-3-[2-(4-pyridyl)ethyl]urea] | 107 to 118
CCCCCN(CCC12CC3CC(CC(C3)C1)C2)C(=O)NCCCc1ccccn1 [Compound No. 1-83, 1-[2-(1-Adamantyl)ethyl]-1-pentyl-3-[3-(2-pyridyl)propyl]urea] | 84.4 to 85.7
CCCCCN(CCC12CC3CC(CC(C3)C1)C2)C(=O)NCCCc1cccnc1 [Compound No. 1-84, 1-[2-(1-Adamantyl)ethyl]-1-pentyl-3-[3-(3-pyridyl)propyl]urea] | 99.9 to 105.2
CCCCCN(CCC12CC3CC(CC(C3)C1)C2)C(=O)NCCCCc1ccncc1 [Compound No. 1-87, 1-[2-(1-Adamantyl)ethyl]-1-pentyl-3-[4-(4-pyridyl)butyl]urea] | 74.1 to 78.1
CCCCCN(CCC12CC3CC(CC(C3)C1)C2)C(=O)NCCCc1ccnc2ccccc12 [Compound No. 1-91, 1-[2-(1-Adamantyl)ethyl]-1-pentyl-3-[3-(4-quinolyl)propyl]urea] | 80.2 to 102
O=C(NCCCc1ccncc1)N(CCCc1ccccc1)C(c1ccccc1)c1ccccc1 [Compound No. 1-93, 1-Diphenylmethyl-1-(3-phenylpropyl)-3-[3-(4-pyridyl)propyl]urea] | 123 to 124.8
CCCCCN(CCC12CC3CC(CC(C3)C1)C2)C(=O)NCCC(C)c1ccncc1 (stereo not shown) [Compound No. 1-104, 1-[2-(1-Adamantyl)ethyl]-1-pentyl-3-[3-(4-pyridyl)butyl]urea] | 93 to 98
O=C(NCCCc1ccncc1)N(CCCC(F)(F)F)CCC12CC3CC(CC(C3)C1)C2 [Compound No. 1-105, 1-[2-(1-Adamantyl)ethyl]-3-[3-(4-pyridyl)propyl]-1-(4,4,4-trifluorobutyl)urea] | 142.6 to 145
O=C(NCCCc1ccncc1)N(CCCCC(F)(F)F)CCC12CC3CC(CC(C3)C1)C2 [Compound No. 1-106, 1-[2-(1-Adamantyl)ethyl]-3-[3-(4-pyridyl)propyl]-1-(5,5,5-trifluoropentyl)urea] | 116.9 to 118.9
CCCCCN(CCC12CC3CC(CC(C3)C1)C2)C(=O)NCC(CC)Cc1ccncc1 (stereo not shown) [Compound No. 1-108, 1-[2-(1-Adamantyl)ethyl]-1-pentyl-3-[2-(4-pyridylmethyl)butyl]urea] | 72 to 77
CCCCCN(CCC12CC3CC(CC(C3)C1)C2)C(=O)NCC(Cc1ccccc1)Cc1ccncc1 (stereo not shown) [Compound No. 1-109, 1-[2-(1-Adamantyl)ethyl]-3-[2-benzyl-3-(4-pyridyl)propyl]-1-pentylurea] | 111 to 116
CCCCCN(CCC12CC3CC(CC(C3)C1)C2)C(=O)NCC(Cc1ccncc1)Cc1ccncc1 [Compound No. 1-110, 1-[2-(1-Adamantyl)ethyl]-3-[2,2-bis(4-pyridylmethyl)ethyl]-1-pentylurea] | 124 to 136
O=C(NCCCc1ccncc1)N(CCC12CC3CC(CC(C3)C1)C2)CC(F)(F)F [Compound No. 1-114, 1-[2-(1-Adamantyl)ethyl]-3-[3-(4-pyridyl)propyl]-1-(2,2,2-trifluoroethyl)urea] | 106.2 to 107.3
CCCCCN(CCc1ccccc1)C(=O)NCC(C)Cc1ccncc1 (stereo not shown) [Compound No. 1-115, 3-[2-Methyl-3-(4-pyridyl)propyl]-1-pentyl-1-phenethylurea] | 49 to 50
CC(CNC(=O)N(CCC(F)(F)F)CCC12CC3CC(CC(C3)C1)C2)Cc1ccncc1 (stereo not shown) [Compound No. 1-117, 1-[2-(1-Adamantyl)ethyl]-3-[2-methyl-3-(4-pyridyl)propyl]-1-(3,3,3-trifluoropropyl)urea] | 81.1 to 84.1
CC(C)(C)OC(=O)NCCN(CCC12CC3CC(CC(C3)C1)C2)C(=O)NCCCc1ccncc1 [Compound No. 10-8, 1-[2-(1-Adamantyl)ethyl]-1-[2-[N-(t-butoxycarbonyl)amino]ethyl]-3-[3-(4-pyridyl)propyl]urea] | 158 to 160.5

Continued, values first:

melting point [°C] | Structure (SMILES)
79.8 to 80.4 | CCCCN(CCCC12CC3CC(CC(C3)C1)C2)C(=O)NCCCc1ccncc1 [Compound No. 1-122, 1-[3-(1-Adamantyl)propyl]-1-butyl-3-[3-(4-pyridyl)propyl]urea]
88.9 to 90 | O=C(NCCCc1ccncc1)N(CCCC12CC3CC(CC(C3)C1)C2)CC(F)(F)F [Compound No. 1-123, 1-[3-(1-Adamantyl)propyl]-3-[3-(4-pyridyl)propyl]-1-(2,2,2-trifluoroethyl)urea]
92.7 to 93.7 | CCN(CCCCC12CC3CC(CC(C3)C1)C2)C(=O)NCCCc1ccncc1 [Compound No. 1-124, 1-[4-(1-Adamantyl)butyl]-1-ethyl-3-[3-(4-pyridyl)propyl]urea]
110 to 110.5 | CCCN(CCCCC12CC3CC(CC(C3)C1)C2)C(=O)NCCCc1ccncc1 [Compound No. 1-125, 1-[4-(1-Adamantyl)butyl]-1-propyl-3-[3-(4-pyridyl)propyl]urea]
133.9 to 134.5 | CCCCCN(CCC12CC3CC(CC(C3)C1)C2)C(=O)NCCNc1ccncc1 [Compound No. 1-126, 1-[2-(1-Adamantyl)ethyl]-1-pentyl-3-[2-(4-pyridylamino)ethyl]urea]
96 to 98 | CCCN(CCCC12CC3CC(CC(C3)C1)C2)C(=O)NCc1ccncc1 [Compound No. 1-128, 1-[3-(1-Adamantyl)propyl]-1-propyl-3-(4-pyridyl)methylurea]
97.5 to 98.2 | CCN(CCCC12CC3CC(CC(C3)C1)C2)C(=O)NCCCc1ccncc1 [Compound No. 1-130, 1-[3-(1-Adamantyl)propyl]-1-ethyl-3-[3-(4-pyridyl)propyl]urea]
132 to 132.5 | CCCN(CC(=O)NC12CC3CC(CC(C3)C1)C2)C(=O)NCCCc1ccncc1 [Compound No. 1-132, 1-(1-Adamantyl)aminocarbonylmethyl-1-propyl-3-[3-(4-pyridyl)propyl]urea]
82.5 to 84.9 | CCCCCN(CCC12CC3CC(CC(C3)C1)C2)C(=O)NCC(C)(C)Cc1ccncc1 [Compound No. 1-135, 1-[2-(1-Adamantyl)ethyl]-3-[2,2-dimethyl-3-(4-pyridyl)propyl]-1-pentylurea]
168 to 171 | CCCCCN(CCC12CC3CC(CC(C3)C1)C2)C(=O)NCCCc1cc[n+](C)cc1.[I-] [Compound No. 4-1, 4-[3-[3-[2-(1-Adamantyl)ethyl]-3-pentylureido]propyl]-1-methylpyridinium iodide]
105.6 to 107.1 | OCCN(CCc1ccccc1)C(=S)NCCCc1ccncc1 [Compound No. 7-2, 1-(2-Hydroxyethyl)-1-phenethyl-3-[3-(4-pyridyl)propyl]thiourea]
99.5 to 104 | S=C1N(CCCc2ccncc2)CCN1CCc1ccccc1 [Compound No. 8-1, 1-Phenethyl-3-[3-(4-pyridyl)propyl]-2-imidazolidinethione]
140 to 146 | CC(=O)NN(CCC12CC3CC(CC(C3)C1)C2)C(=O)NCCCc1ccncc1 [Compound No. 10-1, 1-Acetylamino-1-[2-(1-adamantyl)ethyl]-3-[3-(4-pyridyl)propyl]urea]
164.9 to 167.2 | CN(CCN(CCC12CC3CC(CC(C3)C1)C2)C(=O)NCCCc1ccncc1)S(C)(=O)=O [Compound No. 10-4, 1-[2-(1-Adamantyl)ethyl]-1-[2-[N-methyl-N-(methylsulfonyl)amino]ethyl]-3-[3-(4-pyridyl)propyl]urea]
101.4 to 102.4 | CN(CCN(CCC12CC3CC(CC(C3)C1)C2)C(=O)NCCCc1ccncc1)C(=O)CC(C)(C)C [Compound No. 10-6, 1-[2-(1-Adamantyl)ethyl]-1-[2-[N-(3,3-dimethylbutyryl)-N-methylamino]ethyl]-3-[3-(4-pyridyl)propyl]urea]
47 to 52 | CN(CCN(CCC12CC3CC(CC(C3)C1)C2)C(=O)NCCCc1ccncc1)C(=O)OC(C)(C)C(Cl)(Cl)Cl [Compound No. 10-10, 1-[2-(1-Adamantyl)ethyl]-1-[2-[N-(1,1-dimethyl-2,2,2-trichloroethoxycarbonyl)-N-methylamino}ethyl]-3-[3-(4-pyridyl)propyl]urea]
